Data taken from patent EP4810508A1, “ARABINOSE DERIVATIVE COMPOUND, AND COMPOSITION COMPRISING SAME FOR PREVENTING OR TREATING DEGENERATIVE BRAIN DISEASES” (Digmbio. Inc., priority 2023, dated 2025).
Like-named read-outs stand apart in the source and are kept apart here.

Columns and labels:
HRE/Luc/HEK293 cells = experiment: HRE (Hypoxia Response Element) luciferase assay; type: cell-based, human; settings: for fold induction at 10 µM / fold induction at 100 µM: Homo sapiens
Procedure, shortened: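 HRE-luciferase HEK293 cells in MEM/10% FBS pretreated with compound 6 h, then held under hypoxia (0.1% O2) 18 h; luminescence read after lysis. Scored as fold increase over vehicle, with twofold threshold at 100, 10 or 1 µM.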

male ICR mice [1] = experiment: Scopolamine-induced cognitive impairment model: passive avoidance test (PAT); type: in vivo; settings: for percent recovery of memory in passive avoidance test (normal group = 100, scopolamine control = 0) at 50 mg/kg: Mus musculus, po, 168 h, read-out: in vivo(effect) PAT (%); for in vivo PAT: time staying in bright room (step-through latency), scopolamine 1 mg/kg i.p., compounds 50 mg/kg oral for 7 days, donepezil 5 mg/kg (avg.)
From the text: (§1) A memory loss rodent animal model induced by scopolamine intraperitoneal administration is used, and an evaluation method for memory uses a Y-maze test and a passive avoidance test (PAT). Scopolamine is a representative experimental model showing an impairment of cognitive function similar to AD patients by blocking neurotransmitters when administered to an animal as an antagonist of a muscarinic acetylcholine receptor, and as a cognitive function evaluation technique, a Y-maze test and a passive avoidance experiment, which are general and representative methods, were used, and in order to objectify the efficacy levels of the compounds, a group administered with donepezil (Aricept, Eisa) as a positive control material was separately provided to compare the efficacy levels of the compounds.
(§2) In order to evaluate cognitive function, 5-week-old male ICR mice were used, the compounds to be evaluated were prepared at a dose of 50 mg/kg/ml and repeatedly orally administered at a predetermined time for 7 days, and the positive control material was carried out at 5 mg/kg/ml. After the last administration, after 30 minutes of intraperitoneal administration of 1 mg/kg/2 ml of scopolamine, a Y-maze test and a passive avoidance test, which are cognitive function evaluations, were performed.
In addition, the passive avoidance test was conducted using an avoidance learning box (Jeondo B&P, Korea, Seoul), and the avoidance learning box is divided into a dark room and a bright room, and when a laboratory animal is put into a bright room, the subject goes beyond the dark room. At the moment, an electric shock of 0.5 mA is applied for 5 seconds, and when the next day experimental animal is put back into a bright room, an electric shock in a dark room is memorized and stay in a bright room. In this case, a step-through latency is measured to evaluate memory. The efficacy of the compounds of the present invention against the normal group and the control group in the Y-maze test and the passive avoidance test was described in the following Table 3 (Scopolamine-induced cognitive impairment model result).

male ICR mice [2] = experiment: Scopolamine-induced cognitive impairment model: Y-maze test; type: in vivo; settings: for percent recovery of cognitive function (Y-maze) at 50 mg/kg: Mus musculus, po, 168 h; for in vivo Y-maze (%): spontaneous alternation, scopolamine 1 mg/kg i.p., compounds 50 mg/kg oral for 7 days, donepezil 5 mg/kg (avg.)
From the text: as §1, §2
The Y-maze test is a method for evaluating the ability to sequentially act as an experiment for measuring short-term memory. The measurement equipment is composed of three branches, each branch has a length of 42 cm, a width of 3 cm, and a height of 12 cm, and an angle at which three branches are folded is 120°. Experimental animals are put into each branch for 8 minutes, and the number of times of entering the branches to the tail of the experimental animal and the case of being sequentially received in each branch are scored (actual alternation). The alternation behavior is defined as entering not to overlap all three, and is calculated by the following equation. [formula]

[3] = HEK293, fold increase of HRE expression, hypoxic conditions (O2 0.1%) 18 hours, Table 2, read-out: HRE-increasing 10uM
[4] = HEK293, fold increase of HRE expression, hypoxic conditions (O2 0.1%) 18 hours, Table 2, read-out: HRE-increasing 100uM
[5] = read-out: in vivo(effect) Y-maze (%)
[6] = HEK293, 18 h, Table 2 (Examples 37-74, 52), read-out: HKt-increasing 10uM
[7] = HEK293, 18 h, Table 2 (Examples 37-74, 52), read-out: HKt-increasing 100uM
[8] = read-out: cognitive function recovery compared to normal animals, Y-maze experiment (effect %)

| SMILES | fold induction at 10 µM (HRE/Luc/HEK293 cells; [3]) | fold induction at 100 µM (HRE/Luc/HEK293 cells; [4]) | HRE expression (HRE/Luc/HEK293 cells; concentration of 10 µM) | percent recovery of memory in passive avoidance test (normal group = 100, scopolamine control = 0) at 50 mg/kg (male ICR mice [1]) [%] | in vivo PAT (male ICR mice [1]) [s] | percent recovery of cognitive function (Y-maze) at 50 mg/kg (male ICR mice [2]; [5]) [%] | in vivo Y-maze (%) (male ICR mice [2]) | fold induction at 10 µM (HRE/Luc/HEK293 cells; [6]) | fold induction at 100 µM (HRE/Luc/HEK293 cells; [7]) | HRE expression (HRE/Luc/HEK293 cells; low concentration of 1 µM) | percent recovery of cognitive function (Y-maze) at 50 mg/kg (male ICR mice [2]; [8]) [%] | cognitive function recovery compared to normal animals, passive avoidance test (effect %) (male ICR mice [1]; compounds 50 mg/kg, donepezil 5 mg/kg, orally for 7 days, scopolamine 1 mg/kg intraperitoneal) [%] |
| --- | --- | --- | --- | --- | --- | --- | --- | --- | --- | --- | --- | --- |
| CC(C)c1ccc(Oc2ccc(O[C@H]3OC[C@H](O)[C@H](O)[C@H]3O)cc2)cc1 [Example 35, (2R,3R,4S,5S)-2-(4-(4-isopropylphenoxy)phenoxy)tetrahydro-2H-pyran-3,4,5-triol] | 3.7 | < 1 | more than threefold | 45 | 141 | 41 | 59 |  |  |  |  |  |
| CC(C)(C)c1ccc(Oc2ccc(O[C@H]3OC[C@H](O)[C@H](O)[C@H]3O)cc2)cc1 [Example 36] | 3.5 | < 1 | more than threefold | 17 | 76 | 42 | 59 |  |  |  |  |  |
| CC(C)c1ccc(Cc2ccc(O[C@H]3OC[C@H](O)[C@H](O)[C@H]3O)c(F)c2)cc1 [Example 41, (2R,3R,4S,5S)-2-(2-fluoro-4-(4-isopropylbenzyl)phenoxy)tetrahydro-2H-pyran-3,4,5-triol] |  |  |  | 16 | 69.6 | 54 | 59.8 | 3 | 3.2 | more than threefold | ≥ 50 |  |
| CC(C)c1ccc(Oc2ccc(O[C@H]3OC[C@@H](O)[C@H](O)[C@H]3O)cc2)cc1 [Example 56, (2R,3R,4S,5R)-2-(4-(4-isopropylphenoxy)phenoxy)tetrahydro-2H-pyran-3,4,5-triol] |  |  |  | 81 | 217.3 | 64 | 61.8 | 2.7 | 1.4 |  | ≥ 50 | ≥ 50 |
